From patent publication US9233989B2, “Sila analogs of oxazolidinone derivatives and synthesis thereof” (Council of Scientific & Industrial Research, priority 2011, dated 2016)
Converted amounts (≈) assume the structure as drawn.

How the values were obtained:
[1] = system: E.faecalis ATCC 19433; experiment: MIC by microbroth dilution method; type: cell-based
[2] = system: E.faecium 6A VRE; experiment: MIC by microbroth dilution method; type: cell-based
[3] = system: E.faecium ATCC 49224; experiment: MIC by microbroth dilution method; type: cell-based
[4] = system: E.faecium ATCC 3567; experiment: MIC by microbroth dilution method; type: cell-based
[5] = system: MRSA 562; experiment: MIC by microbroth dilution method; type: cell-based, S. aureus
[6] = system: MRSA 0-2657; experiment: MIC by microbroth dilution method; type: cell-based, S. aureus
[7] = system: S.aureus ATCC 29213; experiment: MIC by microbroth dilution method; type: cell-based
[8] = system: MRSA 252 BAA 1720; experiment: MIC by microbroth dilution method; type: cell-based, S. aureus
[9] = system: E.faecium 06076 VRE; experiment: MIC by microbroth dilution method; type: cell-based
[10] = system: S.aureus ATCC 49775 PVL + ve; type: cell-based
[11] = system: E.faecium ATCC 35667; experiment: MIC by microbroth dilution method; type: cell-based
[12] = system: S.epidermidis ATCC 12228; experiment: MIC by microbroth dilution method; type: cell-based
[13] = system: S.epidermidis ATCC 14990; experiment: MIC by microbroth dilution method; type: cell-based
[14] = system: E.faecalis ATCC 29212; experiment: MIC by microbroth dilution method; type: cell-based
[15] = system: MRSA ATCC BAA 39; experiment: MIC by microbroth dilution method; type: cell-based, S. aureus
[16] = system: E.coli 7632; experiment: MIC by microbroth dilution method; type: cell-based
[17] = system: S.aureus ATCC 700699 Mu50; experiment: MIC by microbroth dilution method; type: cell-based
[18] = system: E.faecalis SP 346 VRE; experiment: MIC by microbroth dilution method; type: cell-based
[19] = system: MRSA DB 00026; experiment: MIC by microbroth dilution method; type: cell-based, S. aureus
[20] = system: E.faecium ATCC 19434; experiment: MIC by microbroth dilution method; type: cell-based
[21] = system: E.faecium 134 VRE; experiment: MIC by microbroth dilution method; type: cell-based
[22] = system: S.aureus2 (PVL + ve); type: cell-based, S. aureus
[23] = system: S.aureus ATCC Newman 25904; experiment: MIC by microbroth dilution method; type: cell-based
[24] = system: MRSA ATCC 43300; experiment: MIC by microbroth dilution method; type: cell-based, S. aureus
[25] = system: S.aureus 13709 LNZ mutant; type: cell-based
[26] = system: S.aureus DB00026; experiment: MIC by microbroth dilution method; type: cell-based
[27] = system: MRSE ATCC 35984; experiment: MIC by microbroth dilution method; type: cell-based, S. epidermidis
[28] = system: S.epidermis St 358; experiment: MIC by microbroth dilution method; type: cell-based, S. epidermidis
[29] = system: Mycobacterium tuberculosis H37Rv; experiment: Anti-TB activity, colorimetric resazurin microtiter assay; type: cell-based
[30] = system: E.faecalis ATCC 51299(VRE&HLAR); experiment: MIC by microbroth dilution method; type: cell-based
[31] = system: MRSE ATCC 35983; experiment: MIC by microbroth dilution method; type: cell-based, S. epidermidis
[32] = system: S.aureus ATCC 13709 Smith; experiment: MIC by microbroth dilution method; type: cell-based

| Structure (SMILES) | MIC [1] | MIC [2] | MIC [3] | MIC [4] | MIC [5] | MIC [6] | MIC [7] | MIC [8] | MIC [9] | MIC [10] | MIC [11] | MIC [12] | MIC [13] | MIC [14] | MIC [15] | MIC [16] | MIC [17] | MIC [18] | MIC [19] | MIC [20] | also measured |
| --- | --- | --- | --- | --- | --- | --- | --- | --- | --- | --- | --- | --- | --- | --- | --- | --- | --- | --- | --- | --- | --- |
| COC(=S)NC[C@H]1CN(c2ccc(N3CC[Si](C)(C)CC3)c(F)c2)C(=O)O1 [NDS-10062, (S)—O-methyl((3-(4-(4,4-dimethyl-1,4-azasilinan-1-yl)-3-fluorophenyl)-2-oxooxazolidin-5-yl)methyl)carbamothioate] | 2 µg/mL (≈ 4.86 µM) | 8 µg/mL (≈ 19.4 µM) | 4 µg/mL (≈ 9.72 µM) | 4 µg/mL (≈ 9.72 µM) | 4 µg/mL (≈ 9.72 µM) | 4 µg/mL (≈ 9.72 µM) | 4 µg/mL (≈ 9.72 µM) | 8 µg/mL (≈ 19.4 µM) | 4 µg/mL (≈ 9.72 µM) | 4 µg/mL (≈ 9.72 µM) | 4 µg/mL (≈ 9.72 µM) | > 32 µg/mL | 4 µg/mL (≈ 9.72 µM) | 1 µg/mL (≈ 2.43 µM) | 4 µg/mL (≈ 9.72 µM) | 2 µg/mL (≈ 4.86 µM) | 8 µg/mL (≈ 19.4 µM) | 4 µg/mL (≈ 9.72 µM) | 4 µg/mL (≈ 9.72 µM) | 8 µg/mL (≈ 19.4 µM) | MIC [21]: 4 µg/mL (≈ 9.72 µM); MIC [22]: 4 µg/mL (≈ 9.72 µM); MIC [23]: 4 µg/mL (≈ 9.72 µM); MIC [24]: 4 µg/mL (≈ 9.72 µM); MIC [25]: 4 µg/mL (≈ 9.72 µM); MIC [26]: 4 µg/mL (≈ 9.72 µM); MIC [27]: 2 µg/mL (≈ 4.86 µM); MIC [28]: 4 µg/mL (≈ 9.72 µM); MIC ([29]; Mycobacterium tuberculosis, H37RV, read-out: MIC, Minimum Inhibitory Concentration (90%)): 50 µg/mL (≈ 121 µM); MIC [30]: 4 µg/mL (≈ 9.72 µM); MIC [31]: 4 µg/mL (≈ 9.72 µM); MIC [32]: 4 µg/mL (≈ 9.72 µM) |
| CC(=O)NCC1CN(c2ccc(N3CC[Si](C)(C)CC3)c(F)c2)C(=O)O1 (stereo not shown) [NDS-10026, N-((3-(4-(4,4-dimethyl-1,4-azasilinan-1-yl)-3-fluorophenyl)-2-oxooxazolidin-5-yl)methy)acetamide] | > 16 µg/mL | 16 µg/mL (≈ 42.2 µM) | 8 µg/mL (≈ 21.1 µM) | > 16 µg/mL | 16 µg/mL (≈ 42.2 µM) | 16 µg/mL (≈ 42.2 µM) | 16 µg/mL (≈ 42.2 µM) | 32 µg/mL (≈ 84.3 µM) | > 16 µg/mL | > 16 µg/mL | 8 µg/mL (≈ 21.1 µM) | 16 µg/mL (≈ 42.2 µM) | 16 µg/mL (≈ 42.2 µM) | > 16 µg/mL | 16 µg/mL (≈ 42.2 µM) | > 32 µg/mL | 16 µg/mL (≈ 42.2 µM) | > 16 µg/mL | > 16 µg/mL | > 16 µg/mL | MIC [21]: 16 µg/mL (≈ 42.2 µM); MIC [22]: 32 µg/mL (≈ 84.3 µM); MIC [23]: 32 µg/mL (≈ 84.3 µM); MIC [24]: 32 µg/mL (≈ 84.3 µM); MIC [25]: > 16 µg/mL; MIC [26]: 32 µg/mL (≈ 84.3 µM); MIC [27]: 16 µg/mL (≈ 42.2 µM); MIC [28]: > 16 µg/mL; MIC, Minimum Inhibitory Concentration (90%) ([29]; inhibition of Mycobacterium tuberculosis H37Rv growth, 7H9-OADC media, 37° C., visual readout): 50 µg/mL (≈ 132 µM); MIC [30]: 16 µg/mL (≈ 42.2 µM); MIC [31]: 16 µg/mL (≈ 42.2 µM); MIC [32]: > 16 µg/mL |
